Where two headings read alike, the source gives them in different places.
Columns and labels:
[1] = in vivo; assay type: in vivo, mice; conditions: for MTD: NIH-III nude, mouse, in vivo, ip, i.p., read-out: Maximum tolerated dose (MTD)
From the text: NfsA_Ec potency and bystander effect from the diffusion of activated metabolites is only one determinant of the therapeutic utility of a GDEPT prodrug. Overall, anti-tumor activity will also depend on the efficiency of metabolic activation at well-tolerated prodrug doses, determined mainly by the relationship between host toxicity and plasma/tumor pharmacokinetics. Like PR-104A, the three lead prodrugs (1, 2, and 6) contain an alcohol side chain that requires addition of a phosphate ester to increase water solubility for in vivo applications. […] Employing identical methods, we determined the MTD of compounds 2-P and 6-P to be 1000 µmol/kg and 1330 µmol/kg, respectively (data summary in Table S1). In preparation for efficacy testing against H1299 xenografts, we next determined the MTD of each compound (1-P, 2-P, and 6-P) in H1299 tumor-bearing mice to be 1330 µmol/kg, 750 µmol/kg, and 1330 µmol/kg, respectively (Table S1). In each case 1-P, 2-P, and 6-P administration (i.p.) was well tolerated, with no evidence of morbidity or mortality, accompanied by a minimal body weight loss (BWL) nadir of −2.2%, −4.0%, and −5.3%, respectively (MTD defined as <−15% average BWL).
(§1) An estimated starting dose was determined from related compounds. Animals were promptly euthanized if body weight loss exceeded 20% or if there were clinical signs of severe morbidity. The MTD was defined as the highest dose, at which all animals survived (death rate < 1/6) with no unacceptable morbidity, and where the next dose increment had caused at least one death. Tumors were inoculated onto the flanks of NIH-III nude mice by subcutaneous injection of 10^7 H1299 cells. Tumor-bearing mice were randomized to treatment groups (n = 5 mice per group) when tumors reached treatment size (300–350 mm^3) and injected with a single intraperitoneal dose of pre-prodrug. Tumor size and body weights were measured regularly. Tumor volume was calculated as π(Lxw^2)/6, where L is the major axis and w is the perpendicular minor axis. Animals were euthanized when the tumor volume had increased fourfold relative to pre-treatment volume (RTV4, survival endpoint) or if body weight loss exceeded 20% of the pre-treatment value. Kaplan–Meier plots were constructed, and median time to endpoint was calculated. Treatment efficacy was assessed by comparing the median survival time with untreated animals using the Log-rank test p-test (Sigmaplot version 11.0).
Supplementary Table S1. Summary of maximum tolerated dose of test compounds
Footnotes: BWL nadir % = body weight loss percentage (time independent nadir). HEP = humane endpoint. * =
Non-tumour bearing H1299 tumour bearing

[2] = tested on: mixed H1299 xenograft containing 28% NfsA_Ec cells and 72% WT cells; test: Tumor growth delay assay, mixed H1299 xenograft; assay type: in vivo, mice; conditions: for Survival time compared to PR-104 treated tumors: single i.p. dose: 1-P 1330 µmol/kg
Protocol: These ratios were broadly similar to those observed in HCT116 cells (Figure 2). A mixed H1299 xenograft model containing a minority percentage (28 ± 3.3%) of NfsA_Ec-expressing cells was used in order to rank the efficacy of the prodrugs in vivo. A model such as this necessitates the presence of a robust bystander effect to achieve a tumor growth delay. Tumor-bearing mice were administered a single intraperitoneal dose of prodrugs 1-P, 2-P, and 6-P at the H1299 tumor-bearing MTD. PR-104 was administered at 388 µmol/kg, the human equivalent dose (HED) in mice that provides a plasma AUCfree of PR-104A (38 µM-h) that equates to the human Q3W MTD of 1100 mg/m^2 [22].
as §1
Figure 5 In vivo efficacy of the three lead pre-prodrug compounds in a mixed H1299 xenograft containing 28% NfsA_Ec cells and 72% WT cells. (A) Tumor growth and (B) survival analysis of mice bearing 250 mm^3 H1299 tumors treated with a single intraperitoneal dose of prodrug on day 0. N = 5 animals per group. Control = PBS, PR-104 = 388 µmol/kg; 1-P = 1330 μmol/kg; 2-P = 750 μmol/kg; and 6-P = 1330 μmol/kg. Survival endpoint was 4× start volume (RTV4).

[3] = LogD7.4 by low-volume octanol/PBS shake-flask method; assay type: physicochemical; conditions: n-octanol/PBS; octanol-water partition coefficient, shake-flask method at pH 7.4
Protocol: Distribution ratios (LogD7.4) were determined by a low-volume octanol/PBS shake-flask method. Briefly, saturated solutions of octanol and PBS were prepared by mixing equal volumes of n-octanol and PBS (pH 7.4) before being left for three days. The octanol and PBS phases were then carefully separated and left to stand for at least 24 h. Stock solutions (0.1–0.5 mM) of each compound were prepared in octanol saturated with PBS. The stock solutions were diluted with octanol saturated with PBS containing and inter-assay control (acridone) to a final compound concentration of 50 μM. Aliquots (450 μL) were then taken in triplicate, and 450 μL of PBS saturated with octanol was added into amber tubes. The tubes were then sealed in parafilm and rotated for 90 min at 30 rpm to equilibrate. After centrifugation (15,000× g, 5 min, 20°C) the octanol and PBS phases were separated into different tubes and the octanol phase diluted with methanol (1:5 v/v). Both phases were analyzed by HPLC (diode-array detector at 364 ± 10 nm) by injecting 50 μL of the PBS phase and 15 μL of the diluted octanol phase. The results were then expressed as the log ratio of the peak areas obtained from the octanol and PBS phases corrected for dilution and injection volume.

[4] = tested on: SiHa xenografts; test: Tumor excision assay, clonogenic cell kill of SiHa xenografts; assay type: in vivo, mice; conditions: 18 h after treatment, PR-104 380 µmol/kg i.p., 6-P 1330 µmol/kg i.p.
Protocol: The sensitivity of four cancer cell lines to prodrug 6 was determined under aerobic or anoxic conditions using an anti-proliferative IC50 assay. […] We also evaluated the hypoxic activity of 6-P versus PR-104 in vivo using a SiHa xenograft model (Figure 6B).
When tumors reached treatment size (>400 mm^3), mice were treated with drug by a single intraperitoneal injection of pre-prodrug or vehicle. Mice treated with ionizing radiation were exposed to 10 Gray prior to drug treatment, using a cobalt-60 source from an Eldorado G unit. Animals were euthanized 18 h after drug treatment, and tumors were excised and homogenized using sterile scissors until a fine mince was obtained. Following enzymatic dissociation (2.5 mg/mL pronase, 1 mg/mL collagenase, and 0.2 mg/mL DNAase in αMEM + 10% FBS + 1% P/S, 1 mL per 50 mg), cells were plated at concentrations of 10^2–10^5 cells per 60 mm dish and grown for 10 days before colonies were stained with methylene blue (2 g/L in 50% aqueous alcohol). Colonies containing >50 cells were counted as clonogenic survivors. From these values, plating efficiency (colonies/cells plated), number of clonogens per gram of tumor tissue (plating efficiency × total cells), and log cell kill relative to vehicle treated controls (log clonogens per gram) were calculated. Statistical analysis was undertaken using Holm–Sidak’s one-way ANOVA (Sigmaplot version 11.0).
(A) In vitro anti-proliferative activity of 6 in various cancer cell lines under aerobic and anoxic conditions. IC50 values were determined as the concentration of drug required to inhibit cell growth by 50% of untreated controls following 4 h drug exposure and five days regrowth (mean ±SEM of three or more independent determinations). (B) Clonogenic cell kill of SiHa xenografts 18 h after treatment with hypoxia activated prodrugs PR-104 (380 µmol/kg, i.p.) or 6-P (1330 µmol/kg, i.p.) with or without 10 Gy radiation.

[5] = non-tumour bearing, cited from earlier work
[6] = H1299 tumour bearing, dose 750 µmol/kg
[7] = H1299 tumour bearing, dose 1000 µmol/kg
[8] = non-tumour bearing, dose 1000 µmol/kg
[9] = non-tumour bearing, dose 1330 µmol/kg
[10] = H1299 tumour bearing, dose 1330 µmol/kg
[11] = non-tumour bearing, dose 1780 µmol/kg
[12] = H1299 tumour bearing, dose 1780 µmol/kg

Compound: CN(CCOP(=O)(O)O)C(=O)c1cc(N(CCBr)CCBr)c(S(C)(=O)=O)cc1[N+](=O)[O-] [Compound 2-P, 2-(5-(Bis(2-bromoethyl)amino)-N-methyl-4-(methylsulfonyl)-2-nitrobenzamido)ethyl dihydrogen phosphate]
- BWL nadir [1, 6]: -4.0%
- Deaths [1, 6]: 0
- HEP (humane endpoint) [1, 6]: 0
- MTD (Yes/above) [1, 6]: Yes
- BWL nadir [1, 7]: -8.7%
- Deaths [1, 7]: 2
- HEP (humane endpoint) [1, 7]: 0
- MTD (Yes/above) [1, 7]: above
- MTD ([1]; H1299 tumor-bearing mice): 750 µmol/kg
- MTD ([1]; nude mice, non-tumour bearing): 1000 µmol/kg
- BWL nadir [1, 8]: -2.5%
- Deaths [1, 8]: 0
- HEP (humane endpoint) [1, 8]: 0
- MTD (Yes/above) [1, 8]: Yes
- BWL nadir [1, 9]: -10.5%
- Deaths [1, 9]: 1
- HEP (humane endpoint) [1, 9]: 1
- MTD (Yes/above) [1, 9]: above
- Survival time compared to PR-104 treated tumors ([2]; 2-P 750 µmol/kg): did not produce an improvement in survival time

Compound: CCS(=O)(=O)c1cc([N+](=O)[O-])c(C(=O)NCCO)cc1N(CCBr)CCBr [Compound 5, 5-(Bis(2-bromoethyl)amino)-N-(2-hydroxyethyl)-4-(ethylsulfonyl)-2-nitrobenzamide]
- logD at 90 min [3]: 1.5
- melting point: 137 to 140 °C

Compound: CCN(CCO)C(=O)c1cc(N(CCBr)CCBr)c(S(C)(=O)=O)cc1[N+](=O)[O-] [Compound 3]
- logD at 90 min [3]: 1.6

Compound: CCS(=O)(=O)c1cc([N+](=O)[O-])c(C(=O)N(C)CCOP(=O)(O)O)cc1N(CCBr)CCBr [Compound 6-P, 2-(5-(bis(2-bromoethyl)amino)-4-(ethylsulfonyl)-N-methyl-2-nitrobenzamido)ethyl dihydrogen phosphate]
- BWL nadir [1, 10]: -5.3%
- Deaths [1, 10]: 0
- HEP (humane endpoint) [1, 10]: 0
- MTD (Yes/above) [1, 10]: Yes
- MTD ([1]; H1299 tumor-bearing mice): 1330 µmol/kg
- MTD ([1]; nude mice, non-tumour bearing): 1330 µmol/kg
- BWL nadir [1, 9]: -1.8%
- Deaths [1, 9]: 0
- HEP (humane endpoint) [1, 9]: 0
- MTD (Yes/above) [1, 9]: Yes
- Deaths [1, 11]: 0
- HEP (humane endpoint) [1, 11]: 2
- MTD (Yes/above) [1, 11]: above
- Tumor growth delay compared to PR-104 treated group ([2]; single i.p. dose, 6-P 1330 µmol/kg, PR-104 388 µmol/kg): 92%
- Tumor growth delay (median time to RTV4) compared to untreated controls ([2]; single i.p. dose: PR-104 388 µmol/kg, 1-P 1330 µmol/kg, 2-P 750 µmol/kg, 6-P 1330 µmol/kg): 156%
- Log cell kill, in combination with radiotherapy ([4]; 10 Gy radiation): 4.05
- Log cell kill, single agent [4]: 1.06

Compound: CCCS(=O)(=O)c1cc([N+](=O)[O-])c(C(=O)NCCO)cc1N(CCBr)CCBr [Compound 8]
- melting point: 128 to 129 °C

Compound: CS(=O)(=O)c1cc([N+](=O)[O-])c(C(=O)NCCOP(=O)(O)O)cc1N(CCBr)CCBr [Compound 1-P]
- BWL nadir [1, 10]: -2.2%
- Deaths [1, 10]: 0
- HEP (humane endpoint) [1, 10]: 0
- MTD (Yes/above) [1, 10]: Yes
- BWL nadir [1, 12]: -7.6%
- Deaths [1, 12]: 1
- HEP (humane endpoint) [1, 12]: 1
- MTD (Yes/above) [1, 12]: above
- MTD ([1]; H1299 tumor-bearing mice): 1330 µmol/kg
- Survival time compared to PR-104 treated tumors ([2]; 2-P 750 µmol/kg): did not produce an improvement in survival time
- BWL nadir ([5]; dose 1780 µmol/kg): -2.8%
- Deaths ([5]; dose 1780 µmol/kg): 0
- HEP (humane endpoint) ([5]; dose 1780 µmol/kg): 0
- MTD (Yes/above) ([5]; dose 1780 µmol/kg): Yes
- BWL nadir ([5]; dose 2370 µmol/kg): -6.9%
- Deaths ([5]; dose 2370 µmol/kg): 2
- HEP (humane endpoint) ([5]; dose 2370 µmol/kg): 0
- MTD (Yes/above) ([5]; dose 2370 µmol/kg): above
- Maximum tolerated dose (MTD) ([5]; nude mice, i.p.): 1780 µmol/kg

— paper PMC8877822, “Interrogation of the Structure–Activity Relationship of a Lipophilic Nitroaromatic Prodrug Series Designed for Cancer Gene Therapy Applications” (Pharmaceuticals, 2022)
